Measurements from patent US8252832B2, “Kinesin inhibitors as cancer therapeutics” (Novartis AG, priority 2007, dated 2012).

Tests used:
[1] = KMS-11-luc disseminated disease model, host response; format: in vivo, mouse; details: q4d × 3, i.v.
Procedure: Experiments were performed using immunodeficient SCID-Beige female mice approximately 7-8 weeks old (Charles River Laboratories, Wilmington, Mass.). […] Routine animal care and assurance of welfare were as described above. […] Doses were adjusted to each animal's body weight. […] Approximately 10 minutes prior to imaging, mice were injected i.p. with 150 mg/kg luciferin (Xenogen Corporation, Alameda, Calif.), followed by anesthetization with isoflurane. Photon emission was measured using a charge coupled device camera in the IVIS imaging system (Xenogen Corporation). Briefly, a gray-scale image of the mice was captured, followed by an overlay of a bioluminescence map representing the spatial distribution of photons detected from cleaved luciferin in the cancer cells expressing luciferase. Signal intensity was quantified using a customized version of the IGOR Pro version 4.09A Software (WaveMetrics, Inc., Lake Oswego, Oreg.) called Living Image version 2.50.2 (Xenogen). The sum of all detected photon counts from the right+left legs were determined. Bioluminescence of cancer cells in the animals was measured by imaging on designated days until the first mice developed hind limb paralysis due to disease burden, the main end point for when to humanely euthanize mice. The day of euthanasia for each mouse was recorded, and the remaining percentage of mice surviving was plotted over time (Kaplan-Meier survival analysis). P values were calculated using the log-rank test (GraphPad Prism 4.0 software) to assess differences between treated and control groups (p<0.05 was considered significant). […] Data analysis was as described above.

[2] = tested on: primary blast cells from AML patients; experiment: Colony formation assay in methylcellulose containing medium, AML blasts; format: cell-based, human
Procedure: Primary blast cells from AML patients were tested for sensitivity to compound IIa as shown below. Frozen AML blasts from peripheral blood were obtained from AllCell LLC. (Emeryville, Calif.). Three frozen vials containing ˜1×10^7 PBMCs were purchased. Peripheral blood mononuclear cells (PBMCs) from three newly diagnosed AML patients with a high percentage of blasts (#06-188, 80%; #06-366, 88%; #06-503, 73%) were cultured for several weeks and treated with the KSP inhibitors. The vials were rapidly thawed and the cells were cultured in Iscove's DMEM supplemented with 10% FBS and the following cytokines all at 10 ng/ml: GM-CSF, G-CSF, SCF, IL-3, and IL-6 (all from R&D Systems). Three assays were performed on the cells as follows: • CellTiter-Glo® assay on AML blasts. PBMCs containing AML blasts were seeded in 96-well plates (5000/well) and treated with various concentrations of the compound IIa (10 pM to 10 nM) for 48 hours before cells survival was measured as described above. GI50 values (nM) were calculated as for cell lines. • Cell cycle analysis using propidium iodide staining. […] The DNA content of the fixed and stained cells was analyzed by the BD FACSCalibur flow cytometer using the CellQuest software. • Colony formation assay in methylcellulose containing medium. […] Colonies were counted under a microscope after 2 weeks. […]

[3] = tested on: KB8.5; experiment: CellTiter-Glo proliferation, 72 hours; format: cell-based; details: Homo sapiens; Epidermoid, KB8.5, 72 hours

SMILES: CC(C)(C)[C@H](c1nc(-c2cc(F)ccc2F)cn1Cc1ccccc1)N(CC[C@H](N)CF)C(=O)CO [Compound IIa]
- Max. Δ body weight (Day) ([1]; 0.25 mg/kg, D14): 2.1 ± 1.23 g
- Max. Δ body weight (Day) (%) ([1]; 0.25 mg/kg, D14): 5.0 ± 2.0%
- Max. Δ body weight (Day) ([1]; 0.5 mg/kg, D14): 2.5 ± 0.23 g
- Max. Δ body weight (Day) (%) ([1]; 0.5 mg/kg, D14): 6.7 ± 1.1%
- Max. Δ body weight (Day) ([1]; 1 mg/kg, D13): -0.74 ± 0.75 g
- Max. Δ body weight (Day) (%) ([1]; 1 mg/kg, D13): −3.3 ± 4.0%
- colonies ([2]; 0.5 nM and above, samples #06-366, #06-188, #06-503, 2 weeks): absent
- number of colonies ([2]; sample #06-366, 0.2 nM, 2 weeks): markedly reduced
- GI50 [3]: 500 pM
